From ChEMBL document CHEMBL1201862, “PubChem BioAssay data set” (2004)
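Dose response: 5 concentrations. Exposure: 48 h. Format: 96-well plates. Endpoint: linear interpolation; highest concentration if not reached. The concentration for 50% growth inhibition is given as GI50.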 Calls of active or inactive are those of the source. Rule as the data show it: active = GI50 up to about 1.1 µM and inactive = higher.

Tests used:
Assay in all cases: NCI tumour cell line growth inhibition, 48 h
SR = test system: SR
UO-31 = test system: UO-31
M14 = test system: M14
CAKI-1 = test system: CAKI-1
NCI-H460 = test system: NCI-H460
NCI-H226 = test system: NCI-H226
HCT-116 = test system: HCT-116
OVCAR-3 = test system: OVCAR-3
COLO 205 = test system: COLO 205
A498 = test system: A498
LOX IMVI = test system: LOX IMVI
SF-268 = test system: SF-268
SNB-75 = test system: SNB-75
OVCAR-8 = test system: OVCAR-8
CCRF-CEM = test system: CCRF-CEM
SW-620 = test system: SW-620
TK-10 = test system: TK-10
SNB-19 = test system: SNB-19
SK-MEL-5 = test system: SK-MEL-5

Measured: GI50

Cc1ccc(NC(=O)SCCC(=O)O)cc1
inactive: SR > 100 µM | UO-31 > 100 µM | M14 > 100 µM | CAKI-1 > 100 µM | NCI-H460 > 100 µM | NCI-H226 > 100 µM | HCT-116 > 100 µM | OVCAR-3 > 100 µM | COLO 205 > 100 µM | A498 > 100 µM | LOX IMVI > 100 µM | SF-268 17.2 µM | SNB-75 8.95 µM | OVCAR-8 > 100 µM | CCRF-CEM > 100 µM | SW-620 > 100 µM | TK-10 > 100 µM | SNB-19 > 100 µM

O=C1/C(=C/c2cccc([N+](=O)[O-])c2)N=C(c2ccccc2)N1c1nc2ccc(Sc3ccccc3)cc2[nH]1
inactive: SR 24.8 µM | UO-31 3.45 µM | M14 38.9 µM | CAKI-1 65.5 µM | NCI-H460 25 µM | NCI-H226 > 100 µM | HCT-116 41.6 µM | COLO 205 31.8 µM | A498 87.7 µM | LOX IMVI 38.5 µM | SF-268 39 µM | SK-MEL-5 28.8 µM | SNB-75 52.4 µM | OVCAR-8 45.1 µM | SW-620 37.2 µM | TK-10 71.4 µM | SNB-19 80 µM

O=C(Nc1ccn(CCOC(=O)c2ccccc2)c(=O)n1)c1ccccc1
inactive: SR > 100 µM | UO-31 > 100 µM | M14 > 100 µM | CAKI-1 > 100 µM | NCI-H460 > 100 µM | NCI-H226 > 100 µM | HCT-116 > 100 µM | OVCAR-3 > 100 µM | COLO 205 > 100 µM | A498 > 100 µM | LOX IMVI > 100 µM | SF-268 > 100 µM | SK-MEL-5 > 100 µM | SNB-75 > 100 µM | OVCAR-8 > 100 µM | CCRF-CEM > 100 µM | SW-620 > 100 µM | TK-10 > 100 µM

CCN1C(=O)N2C(OC)c3ccccc3C(Br)C2(OC)C1=O (stereo not given)
inactive: SR > 100 µM | UO-31 > 100 µM | M14 > 100 µM | CAKI-1 > 100 µM | NCI-H460 > 100 µM | NCI-H226 > 100 µM | OVCAR-3 > 100 µM | COLO 205 > 100 µM | A498 > 100 µM | LOX IMVI > 100 µM | SK-MEL-5 > 100 µM | SNB-75 48.3 µM | OVCAR-8 > 100 µM | CCRF-CEM > 100 µM | SW-620 > 100 µM | TK-10 > 100 µM | SNB-19 > 100 µM
